These results are taken from patent US12157730B2, “Heteroaryl derivative, method for producing same, and pharmaceutical composition comprising same as effective component” (VORONOI INC., priority 2019, dated 2024).

SMILES strings stand for the structures.

In this assay the target is T1, Ba/F3 cell EGFR Exon20 ins NPH (Homo sapiens, UniProt P00533, INS773NPH).
T1 construct: expressed in transfected cells; host or cells: Ba/F3
Kind of assay: Ba/F3 cell proliferation suppression, EGFR Exon20 ins NPH. It is filed as cell-based. As to conditions: GI50 class; Ba/F3 cell line with NPH inserted at Exon20 of EGFR; 72 hours. Summed up: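 After 72 h compound exposure (twelve 3-fold steps, 0.3 nM–50 um final), live cells were measured by CellTiter-Glo luminescence and growth expressed as % of control to derive GI50. Cells were seeded at 3000–5000 per well a day earlier; Ba/F3 medium contained IL-3; three repeats.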
Consider `C=CC(=O)Nc1cc(Nc2cc(N3OCC[C@@H]3c3ccc(F)c(Cl)c3)ncn2)c(OC)cc1N1CCC(N2C[C@@H](C)N(CC)[C@@H](C)C2)CC1` [compound 370, N-(5-((6-((R)-3-(3-chloro-4-fluorophenyl)isoxazolidine-2-yl)pyrimidine-4-yl)amino)-2-(4-((3S,5R)-4-ethyl-3,5-dimethylpiperazine-1-yl)piperidine-1-yl)-4-methoxyphenyl) acrylamide], for which the “Ba/F3 (NPH) Activity” value is “A (GI50 < 50 nM)”.
Take `C=CC(=O)Nc1cc(Nc2cc(N3OCC[C@@H]3c3cccc(Cl)c3F)ncn2)c(OC)cc1N1CCC(N2C[C@H]3C[C@@H]2CO3)CC1` [Example 258, N-(2-(4-((1R,4R)-2-oxa-5-azabicyclo [2.2.1]heptane-5-yl)piperidine-1-yl)-5-((6-((R)-3-(3-chloro-2-fluorophenyl)isoxazolidine-2-yl)pyrimidine-4-yl)amino)-4-methoxyphenyl) acrylamide]: the “Ba/F3 (NPH) Activity” value is reported as “A (GI50 < 50 nM)”.
Take `C=CC(=O)Nc1cc(Nc2cc(N3OCC[C@@H]3c3ccccc3)ncn2)c(OC)cc1N1CCN(CC2CC2)CC1` [Example 277, N-(2-(4-(cyclopropylmethyl)piperazine-1-yl)-4-methoxy-5-((6-((R)-3-phenylisoxazolidine-2-yl)pyrimidine-4-yl)amino)phenyl) acrylamide]: the “Ba/F3 (NPH) Activity” value is recorded as “A (GI50 < 50 nM)”.
Consider `C=CC(=O)Nc1cc(Nc2cc(N3OCC[C@@H]3Cc3cccnc3)ncn2)c(OC)cc1N1CCC(N2C[C@H]3C[C@@H]2CO3)CC1` [compound 987, N-(2-(4-((1R,4R)-2-oxa-5-azabicyclo [2.2.1]heptane-5-yl)piperidine-1-yl)-4-methoxy-5-((6-((S)-3-(pyridine-3-ylmethyl)isoxazolidine-2-yl)pyrimidine-4-yl)amino)phenyl)acrylamide], for which the “Ba/F3 (NPH) Activity” value was “C (500 nM ≤ GI50 < 5000 nM)”.
The same measure for `C=CC(=O)Nc1cc(Nc2cc(N3OCC[C@@H]3Cc3cccc(N(C)C)c3)ncn2)c(OC)cc1N1CCC(N2C[C@@H]3C[C@H]2CO3)CC1` [compound 1048, N-(2-(4-((1S,4S)-2-oxa-5-azabicyclo [2.2.1]heptane-5-yl)piperidine-1-yl)-5-((6-((S)-3-(3-(dimethylamino)benzyl)isoxazolidine-2-yl)pyrimidine-4-yl)amino)-4-methoxyphenyl) acrylamide]: “B (50 nM ≤ GI50 < 500 nM)”.
The same measure for `C=CC(=O)Nc1cc(Nc2cc(N3OCC[C@@H]3c3cc(F)cc(F)c3)ncn2)c(OC)cc1N1CCC(N2CCC(F)(F)CC2)CC1` [compound 718, N-(2-(4,4-difluoro-[1,4'-bipiperidine]-1'-yl)-5-((6-((R)-3-(3,5-difluorophenyl)isoxazolidine-2-yl)pyrimidine-4-yl)amino)-4-methoxyphenyl) acrylamide]: “A (GI50 < 50 nM)”; for `C=CC(=O)Nc1cc(Nc2cc(N3OCC[C@@H]3c3cc(F)cc(F)c3)ncn2)c(OC)cc1N1CCOCC1` [compound 823, N-(5-((6-((R)-3-(3,5-difluorophenyl)isoxazolidine-2-yl)pyrimidine-4-yl)amino)-4-methoxy-2-morpholinophenyl) acrylamide]: “A (GI50 < 50 nM)”.
For the compound `C=CC(=O)Nc1cc(Nc2cc(N3OCC[C@@H]3c3ccccc3)ncn2)c(OC)cc1N1CCC(N2CCN(C3CCCC3)CC2)CC1` [Example 97, N-(2-(4-(4-cyclopentylpiperazine-1-yl)piperidine-1-yl)-4-methoxy-5-((6-((R)-3-phenylisoxazolidine-2-yl)pyrimidine-4-yl)amino)phenyl) acrylamide], the “Ba/F3 (NPH) Activity” value is on record as “A (GI50 < 50 nM)”.
To `C=CC(=O)Nc1cc(Nc2cc(N3OCC[C@@H]3c3ccc(C)nc3)ncn2)c(OC)cc1N1CCC(N2CCOCC2)CC1` [Example 45, N-(4-methoxy-5-((6-((R)-3-(6-methylpyridine-3-yl)isoxazolidine-2-yl)pyrimidine-4-yl)amino)-2-(4-morpholinopiperidine-1-yl)phenyl) acrylamide] belongs “B (50 nM ≤ GI50 < 500 nM)”; to `C=CC(=O)Nc1cc(Nc2cc(N3OCC[C@@H]3c3cc(F)ccc3F)ncn2)c(OC)cc1N1CC[C@@H](N(C)C)C1` [compound 848, N-(5-((6-(2,5-((R)-3-difluorophenyl)isoxazolidine-2-yl)pyrimidine-4-yl)amino)-2-((R)-3-(dimethylamino)pyrolidine-1-yl)-4-methoxyphenyl) acrylamide], “A (GI50 < 50 nM)”; to `C=CC(=O)Nc1cc(Nc2cc(N3OCC[C@@H]3c3cccc(Cl)c3C)ncn2)c(OC)cc1N1CCC(N2CCN(C3CC3)[C@@H](C)C2)CC1` [Example 153, N-(5-((6-((R)-3-(3-chloro-2-methylphenyl)isoxazolidine-2-yl)pyrimidine-4-yl)amino)-2-(4-((S)-4-cyclopropyl-3-methylpiperazine-1-yl)piperidine-1-yl)-4-methoxyphenyl) acrylamide], “A (GI50 < 50 nM)”.
`C=CC(=O)Nc1cc(Nc2cc(N3OCC[C@@H]3c3cccc4ccccc34)ncn2)c(OC)cc1N1CCC(N2CCN(C3CC3)[C@@H](C)C2)CC1` [Example 156, N-(2-(4-((S)-4-cyclopropyl-3-methylpiperazine-1-yl)piperidine-1-yl)-4-methoxy-5-((6-((R)-3-(naphthalene-1-yl)isoxazolidine-2-yl)pyrimidine-4-yl)amino)phenyl)acrylamide]: the “Ba/F3 (NPH) Activity” value is listed as “A (GI50 < 50 nM)”.
Consider `C=CC(=O)Nc1cc(Nc2cc(N3OCC[C@@H]3Cc3cccc(Cl)c3Cl)ncn2)c(OC)cc1N1CCC(N2C[C@@H]3C[C@H]2CO3)CC1` [compound 1012, N-(2-(4-((1S,4S)-2-oxa-5-azabicyclo [2.2.1]heptane-5-yl)piperidine-1-yl)-5-((6-((S)-3-(2,3-dichlorobenzyl)isoxazolidine-2-yl)pyrimidine-4-yl)amino)-4-methoxyphenyl) acrylamide], for which the “Ba/F3 (NPH) Activity” value is “A (GI50 < 50 nM)”.
With `C=CC(=O)Nc1cc(Nc2cc(N3OCC[C@@H]3c3cccc(Cl)c3)ncn2)c(OC)cc1N1CCOCC1` [compound 467, N-(5-((6-((R)-3-(3-chlorophenyl)isoxazolidine-2-yl)pyrimidine-4-yl)amino)-4-methoxy-2-morpholinophenyl) acrylamide], the “Ba/F3 (NPH) Activity” value is “A (GI50 < 50 nM)”.
To `C=CC(=O)Nc1cc(Nc2cc(N3OCC[C@@H]3c3ccc(Cl)c(Cl)c3)ncn2)c(OC)cc1N1CCC(N2C[C@@H]3C[C@H]2CO3)CC1` [compound 688, N-(2-(4-((1S,4S)-2-oxa-5-azabicyclo[2.2.1]heptane-5-yl)piperidine-1-yl)-5-((6-((R)-3-(3,4-dichlorophenyl)isoxazolidine-2-yl)pyrimidine-4-yl)amino)-4-methoxyphenyl) acrylamide] belongs “A (GI50 < 50 nM)”; to `C=CC(=O)Nc1cc(Nc2cc(N3OCC[C@@H]3c3cccc(Cl)c3F)ncn2)c(OC)cc1N1CCC(N2CCOCC2)CC1` [compound 788, N-(5-((6-((R)-3-(3-chloro-2-fluorophenyl)isoxazolidine-2-yl)pyrimidine-4-yl)amino)-4-methoxy-2-(4-morpholinopiperidine-1-yl)phenyl)acrylamide], “A (GI50 < 50 nM)”; to `C=CC(=O)Nc1cc(Nc2cc(N3OCC[C@@H]3c3cccc(OC)c3)ncn2)c(OC)cc1N1CCN(C2COC2)CC1` [compound 730, N-(4-methoxy-5-((6-((R)-3-(3-methoxyphenyl)isoxazolidine-2-yl)pyrimidine-4-yl)amino)-2-(4-(oxetane-3-yl)piperazine-1-yl)phenyl) acrylamide], “B (50 nM ≤ GI50 < 500 nM)”.
Turning to `C=CC(=O)Nc1cc(Nc2cc(N3OCC[C@@H]3c3cccs3)ncn2)c(OC)cc1N1CCC(N2CCN(C3CC3)CC2)CC1` [Example 147, N-(2-(4-(4-cyclopropylpiperazine-1-yl)piperidine-1-yl)-4-methoxy-5-((6-((R)-3-(thiophene-2-yl)isoxazolidine-2-yl)pyrimidine-4-yl)amino)phenyl)acrylamide], the “Ba/F3 (NPH) Activity” value was “A (GI50 < 50 nM)”.
The same measure for `C=CC(=O)Nc1cc(Nc2cc(N3OCC[C@@H]3Cc3cccc(Cl)c3Cl)ncn2)c(OC)cc1N1CCC(N2C[C@H]3C[C@@H]2CO3)CC1` [compound 1014, N-(2-(4-((1R,4R)-2-oxa-5-azabicyclo [2.2.1]heptane-5-yl)piperidine-1-yl)-5-((6-((S)-3-(2,3-dichlorobenzyl)isoxazolidine-2-yl)pyrimidine-4-yl)amino)-4-methoxyphenyl) acrylamide]: “A (GI50 < 50 nM)”; for `C=CC(=O)Nc1cc(Nc2cc(N3OCC[C@@H]3c3c(F)ccc(F)c3F)ncn2)c(OC)cc1N1CCC(N2CCO[C@H](C)C2)CC1` [compound 646, N-(4-methoxy-2-(4-((R)-2-methylmorpholino)piperidine-1-yl)-5-((6-((R)-3-(2,3,6-trifluorophenyl)isoxazolidine-2-yl)pyrimidine-4-yl)amino)phenyl)acrylamide]: “A (GI50 < 50 nM)”.
Turning to `C=CC(=O)Nc1cc(Nc2cc(N3OCC[C@@H]3c3cccc(F)c3F)ncn2)c(OC)cc1N1CCN(C(C)C)CC1` [compound 334, N-(5-((6-((R)-3-(2,3-difluorophenyl)isoxazolidine-2-yl)pyrimidine-4-yl)amino)-2-(4-isopropylpiperazine-1-yl)-4-methoxyphenyl) acrylamide], the “Ba/F3 (NPH) Activity” value was “A (GI50 < 50 nM)”.
For the compound `C=CC(=O)Nc1cc(Nc2cc(N3OCC[C@@H]3c3cccc(F)c3Cl)ncn2)c(OC)cc1N1CCC(N2C[C@H]3C[C@@H]2CO3)CC1` [compound 634, N-(2-(4-((1R,4R)-2-oxa-5-azabicyclo [2.2.1]heptane-5-yl)piperidine-1-yl)-5-((6-((R)-3-(2-chloro-3-fluorophenyl)isoxazolidine-2-yl)pyrimidine-4-yl)amino)-4-methoxyphenyl) acrylamide], the “Ba/F3 (NPH) Activity” value is “A (GI50 < 50 nM)”.
